Laboratory results published in ChEMBL document CHEMBL4219098, “Unprecedented sugar bridged bisindoles selective inhibiting glioma stem cells” (Bioorg Med Chem, 2018).
Active and inactive are the calls of the source. No cut-off for these calls is given here.

Experiments:
Homo sapiens [1] = species: Homo sapiens; assay: Cytotoxicity against human GSC18 cells assessed as cell growth inhibition at 25 uM by phenotypic screening-based assay; type: functional
Homo sapiens [2] = species: Homo sapiens; assay: Cytotoxicity against human GSC12 cells assessed as cell growth inhibition at 25 uM by phenotypic screening-based assay; type: functional
HEK-293T [3] = assay: Cytotoxicity against human 293T cells assessed as cell growth inhibition at 25 uM by phenotypic screening-based assay
[4] = Cytotoxicity against human HAC cells assessed as cell growth inhibition at 25 uM by phenotypic screening-based assay
[5] = Cytotoxicity against human GSC18 cells assessed as reduction in cell viability after 4 days by MTS assay; type: functional, cell-based; details: GSC18, 96 h
[6] = Cytotoxicity against human GSC12 cells assessed as reduction in cell viability after 4 days by MTS assay; type: functional, cell-based; details: GSC12, 96 h
HEK-293T [7] = assay: Cytotoxicity against human 293T cells assessed as reduction in cell viability after 4 days by MTS assay; type: cell-based; details: 96 h
[8] = Cytotoxicity against human HAC cells assessed as reduction in cell viability after 4 days by MTS assay; type: cell-based; details: 96 h
Homo sapiens [9] = species: Homo sapiens; assay: Antiproliferative activity against human GSC18 cells assessed as reduction in BrdU-positive proliferating cells at 25 uM after 72 hrs by BrdU incorporation assay relative to DMSO; type: functional, cell-based
Homo sapiens [10] = species: Homo sapiens; assay: Induction of apoptosis in human GSC18 cells assessed as increase in caspase-3 positive apoptotic cells at 25 uM by immunofluorescence-staining based microscopic analysis; type: functional, cell-based
Homo sapiens [11] = species: Homo sapiens; assay: Induction of extrinsic apoptosis in human GSC18 cells assessed as increase in IL1 mRNA levels at 25 uM after 10 days by RT-PCR analysis relative to DMSO; type: functional, cell-based
Homo sapiens [12] = species: Homo sapiens; assay: Induction of extrinsic apoptosis in human GSC18 cells assessed as increase in TNFalpha mRNA levels at 25 uM after 10 days by RT-PCR analysis relative to DMSO; type: functional, cell-based
Homo sapiens [13] = species: Homo sapiens; assay: Induction of apoptosis in human GSC18 cells assessed as increase in calpain1 mRNA levels at 25 uM after 10 days by RT-PCR analysis relative to DMSO; type: functional, cell-based
Homo sapiens [14] = species: Homo sapiens; assay: Induction of apoptosis in human GSC18 cells assessed as increase in caspase12 mRNA levels at 25 uM after 10 days by RT-PCR analysis relative to DMSO; type: functional, cell-based
Homo sapiens [15] = species: Homo sapiens; assay: Induction of intrinsic apoptosis in human GSC18 cells assessed as increase in bcl-2 mRNA levels at 25 uM after 10 days by RT-PCR analysis relative to DMSO; type: functional, cell-based
Homo sapiens [16] = species: Homo sapiens; assay: Induction of intrinsic apoptosis in human GSC18 cells assessed as increase in bax mRNA levels at 25 uM after 10 days by RT-PCR analysis relative to DMSO; type: functional, cell-based
Homo sapiens [17] = species: Homo sapiens; assay: Induction of intrinsic apoptosis in human GSC18 cells assessed as increase in bid mRNA levels at 25 uM after 10 days by RT-PCR analysis relative to DMSO; type: functional, cell-based
Homo sapiens [18] = species: Homo sapiens; assay: Induction of intrinsic apoptosis in human GSC18 cells assessed as increase in apaf1 mRNA levels at 25 uM after 10 days by RT-PCR analysis relative to DMSO; type: functional, cell-based
Homo sapiens [19] = assay: Antiproliferative activity against human GSC18 cells assessed as damage to clonal spheres morphology at 25 uM administered 2 weeks post clonal sphere formation measured after 10 days by crystal violet-staining based assay; type: functional, cell-based
Homo sapiens [20] = assay: Antiproliferative activity against human GSC18 cells assessed as decrease in number of clonal spheres at 25 uM administered 2 weeks post clonal sphere formation measured after 10 days by crystal violet-staining based assay; type: functional, cell-based

| SMILES | growth inhibition (GI) (Homo sapiens [1]) | growth inhibition (GI) (Homo sapiens [2]) | Activity (HEK-293T [3]) | Activity [4] | IC50 [5] [µM] | IC50 [6] [µM] | IC50 (HEK-293T [7]) [µM] | IC50 [8] [µM] | Activity (Homo sapiens [9]) | Activity (Homo sapiens [10]) | Activity (Homo sapiens [11]) | Activity (Homo sapiens [12]) | Activity (Homo sapiens [13]) | Activity (Homo sapiens [14]) | Activity (Homo sapiens [15]) | Activity (Homo sapiens [16]) | Activity (Homo sapiens [17]) | Activity (Homo sapiens [18]) | Activity (Homo sapiens [19]) | Activity (Homo sapiens [20]) |
| --- | --- | --- | --- | --- | --- | --- | --- | --- | --- | --- | --- | --- | --- | --- | --- | --- | --- | --- | --- | --- |
| C=C[C@H]1[C@H](O[C@@H]2O[C@H](CO[C@H]3C[C@@]45c6ccccc6N[C@]4(O3)[C@@H]3C[C@@H](/C(=C\C)C=[N+]3[O-])[C@H]5CC(=O)OC)[C@@H](O)[C@H](O)[C@H]2O)OC=C2C(=O)N3CCc4c([nH]c5ccccc45)[C@@H]3C[C@H]21 | Active | Active | Non-Toxic | Non-Toxic | 19.2 | 30.9 | > 90 | > 90 | Active | Active | Active | Active | inactive | inactive | inactive | inactive | inactive | inactive | Active | Active |
| C=C[C@H]1[C@H](O[C@@H]2O[C@H](CO[C@H]3C[C@@]45c6ccccc6N[C@]4(O3)[C@@H]3C[C@@H](/C(=C/C)C=[N+]3[O-])[C@H]5CC(=O)OC)[C@@H](O)[C@H](O)[C@H]2O)OC=C2C(=O)N3CCc4c([nH]c5ccccc45)[C@@H]3C[C@H]21 | Active | Active | Non-Toxic | Non-Toxic | 16.1 | 20.7 | > 90 | > 90 | Active | Active | Active | Active | inactive | inactive | inactive | inactive | inactive | inactive | Active | Active |
| CC(=O)O[C@H]1C(=O)[C@@]2(C)[C@H]([C@H](OC(=O)c3ccccc3)[C@]3(O)C[C@H](OC(=O)[C@H](O)[C@@H](NC(=O)c4ccccc4)c4ccccc4)C(C)=C1C3(C)C)[C@]1(OC(C)=O)CO[C@@H]1C[C@@H]2O [PACLITAXEL] | – | – | – | – | 10.4 | 12.5 | 0.0023 | 0.0121 | – | – | – | – | – | – | – | – | – | – | – | – |
